Tests used:
[1] = target: T1, pMON8186 encoded petunia EPSP synthase variant (glycine (101) to alanine and glycine (144) to aspartic acid) (Petunia hybrida, UniProt P11043, G173A/G216D); assay: EPSP synthase kinetic constants (appKi glyphosate, appKm PEP); type: biochemical
T1 construct: GGT codon for glycine (144) in the mature petunia EPSP synthase; made in house; host or cells: E. coli SR481
Method: The balance of the #215 preculture (~750 μl) was used to inoculate 2 ml of MOPS medium containing 50 μg/ml carbenicillin and was shaken overnight at 37° C. to reach saturation. Plasmid DNA was isolated from an aliquot of the saturated culture using an alkaline lysis procedure. The plasmid was designated pMON8186. An aliquot of the pMON8186 plasmid was used to transform the E. coli host SR481 (described above) and reselected on MOPS medium containing 10 mM glyphosate and 50 μg/ml carbenicillin. A single glyphosate resistant colony of pMON8186 was picked off the selection plate and used to inoculate 3 ml of 2XYT bacterial medium containing 50 μg/ml carbenicillin. The culture was then aerated on rotating wheel at 37° C. until saturated, then it was used to inoculate a larger 500 ml culture. The large culture was grown to saturation by shaking it overnight at 37° C. in a water bath. The bacterial cells were lysed and the extracts were assayed for EPSPS activity.
Specifically, the bacterial cell paste was washed twice with 0.9% saline, suspended in buffer (100 mM Tris-HCl, 5 mM benzamidine HCl) and passed twice through the French Pressure Cell at 1000 psi. The cell extract was separated from the cells by centrifuging at 15,000 x gravity for 10 mins. at 5° C. It was desalted using Sephadex G-50 (Pharmacia, Piscataway, N.J.). The desalted extract was assayed for EPSP synthase activity as follows:
To an assay mix (40 μl) containing shikimate-3-phosphate (2 mM), ^14 C-phosphoenolpyruvate (1 mM, 1.2 mCi/mmol), ammonium molybdate (0.1 mM), potassium fluoride (5 mM) in 50 mM HEPES-KOH, pH 7, was added the extract and incubated at 25° C. for 2 mins. The reaction was quenched by the addition of 50 μl of 50 μl of 90% ethanol/0.1M acetic acid, pH 4.5. […] The radioactivity of the eluent was monitored using a Radiomatic Flo-One Beta Instrument. […] The EPSP synthase activity was determined by measurement of the conversion of ^14 C-PEP to ^14 C-EPSP synthase, both of which are resolved under the above conditions of chromatography. The protein content of the extract was determined by the method of Bradford (Biorad Labs, Calif.). The specific activity of the extract is expressed as nanomoles of EPSP synthase formed/min/mg protein.
Kinetic constants (appKm PEP and appKi glyphosate) were determined for EPSP synthase as described below. Substrate kinetic parameters were determined at pH 7.0 in 50 mM HEPES (N-[2-hydroxyethyl]piperazine-N'-[2-ethanesulfonic acid]) buffer in the presence of 2 mM S3P and varying amounts of ^14 C-PEP (10 μM-400 μM), for 2.0 minutes at 25° C. Reactions were quenched with 100 mM Na Acetate in ethanol, pH 4.5, centrifuged and analyzed for product EPSP formation by HPLC with flow radioactivity detection. […]

[2] = target: T2, variant petunia EPSP synthase with glycine (101) to alanine and glycine (144) to asparagine substitutions (Petunia hybrida, UniProt P11043, G173A/G216N); assay: EPSP synthase kinetic constants (Ki glyphosate, Km PEP); type: biochemical
T2 construct: GGT codon for glycine (144) in the mature petunia EPSP synthase
T2 sequence (P11043 73-516 G173A/G216N): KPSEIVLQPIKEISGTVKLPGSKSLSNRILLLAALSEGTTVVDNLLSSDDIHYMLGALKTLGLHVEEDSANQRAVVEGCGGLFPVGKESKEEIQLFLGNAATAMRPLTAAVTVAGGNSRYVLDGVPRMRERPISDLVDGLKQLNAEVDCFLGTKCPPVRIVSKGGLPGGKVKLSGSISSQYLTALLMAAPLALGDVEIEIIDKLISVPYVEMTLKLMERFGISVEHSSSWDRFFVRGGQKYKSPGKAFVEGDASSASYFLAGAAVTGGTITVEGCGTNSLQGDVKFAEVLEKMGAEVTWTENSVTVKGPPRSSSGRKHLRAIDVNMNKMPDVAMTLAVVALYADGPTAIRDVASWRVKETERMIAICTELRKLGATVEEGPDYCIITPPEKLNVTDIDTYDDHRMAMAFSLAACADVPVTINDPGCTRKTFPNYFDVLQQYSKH
Method: (§1) Kinetic constants (appKm PEP and appKi glyphosate) were determined for EPSP synthase as described below. Substrate kinetic parameters were determined at pH 7.0 in 50 mM HEPES (N-[2-hydroxyethyl]piperazine-N'-[2-ethanesulfonic acid]) buffer in the presence of 2 mM S3P and varying amounts of ^14 C-PEP (10 μM-400 μM), for 2.0 minutes at 25° C. Reactions were quenched with 100 mM Na Acetate in ethanol, pH 4.5, centrifuged and analyzed for product EPSP formation by HPLC with flow radioactivity detection. HPLC conditions were 0.35 MKPi, pH 6.5, on a Synchropak AX100 column at 1.0 ml/min.

[3] = target: T3, petunia EPSP synthase glycine (101) to alanine variant (Petunia hybrida, UniProt P11043, G173A); assay: EPSP synthase kinetic constants (appKi glyphosate, appKm PEP); type: biochemical; conditions: relative to wild type
T3 construct: made in house; host or cells: E. coli
T3 sequence (P11043 73-516 G173A): as the sequence (P11043 73-516 G173A/G216N) above, with N144G counted along it
Method: To an assay mix (40 μl) containing shikimate-3-phosphate (2 mM), ^14 C-phosphoenolpyruvate (1 mM, 1.2 mCi/mmol), ammonium molybdate (0.1 mM), potassium fluoride (5 mM) in 50 mM HEPES-KOH, pH 7, was added the extract and incubated at 25° C. for 2 mins. The reaction was quenched by the addition of 50 μl of 50 μl of 90% ethanol/0.1M acetic acid, pH 4.5. 70 μl of the reaction mixture was loaded on a SynchroPak AX100 HPLC column (0.4×25 cm) and the column was eluted with 0.5M potassium phosphate, pH 5.5 at 1 ml/min. The radioactivity of the eluent was monitored using a Radiomatic Flo-One Beta Instrument. (Radiomatics, Fla.). The EPSP synthase activity was determined by measurement of the conversion of ^14 C-PEP to ^14 C-EPSP synthase, both of which are resolved under the above conditions of chromatography. The protein content of the extract was determined by the method of Bradford (Biorad Labs, Calif.). The specific activity of the extract is expressed as nanomoles of EPSP synthase formed/min/mg protein.
as §1

[4] = substrate: C=C(OP(=O)(O)O)C(=O)O; assay: purified protein, by the assay type; conditions: 25.0 °C

T1 sequence (P11043 73-516 G173A/G216D): as the sequence (P11043 73-516 G173A/G216N) above, with N144D counted along it

C=C(OP(=O)(O)O)C(=O)O [PEP, phosphoenolpyruvate]
Km for PEP [1]: 40 µM
Km for PEP relative to the glycine (101) to alanine variant [1]: more than four fold lower
Km for PEP [2]: 91 µM

O=C(O)C1=C[C@@H](OP(=O)(O)O)[C@@H](O)[C@H](O)C1 [S3P, shikimate-3-phosphate]
binding constant for shikimate-3-phosphate (S3P) [3]: not affected

B1: wild type petunia EPSP synthase (Petunia x hybrida) (protein)
chain: KPSEIVLQPIKEISGTVKLPGSKSLSNRILLLAALSEGTTVVDNLLSSDDIHYMLGALKTLGLHVEEDSANQRAVVEGCGGLFPVGKESKEEIQLFLGNAGTAMRPLTAAVTVAGGNSRYVLDGVPRMRERPISDLVDGLKQLGAEVDCFLGTKCPPVRIVSKGGLPGGKVKLSGSISSQYLTALLMAAPLALGDVEIEIIDKLISVPYVEMTLKLMERFGISVEHSSSWDRFFVRGGQKYKSPGKAFVEGDASSASYFLAGAAVTGGTITVEGCGTNSLQGDVKFAEVLEKMGAEVTWTENSVTVKGPPRSSSGRKHLRAIDVNMNKMPDVAMTLAVVALYADGPTAIRDVASWRVKETERMIAICTELRKLGATVEEGPDYCIITPPEKLNVTDIDTYDDHRMAMAFSLAACADVPVTINDPGCTRKTFPNYFDVLQQYSKH
Km [4]: 5.2 µM
